Measured values from patent EP1074549B1, “Tetrahydro-benzo(d)azepines and their use as antagonists at metabotropic glutamate receptors” (F. HOFFMANN-LA ROCHE AG, priority 1999, dated 2001).

What was measured:
[1] = molecular target: T1, rat mGluR1a receptor (Rattus norvegicus, UniProt P23385); experiment: functional assay for the characterization of mGluR 1 antagonistic properties ([Ca2+]i measurement, FLIPR); type: cell-based; conditions: mGluR1a transfected HEK-EBNA cells; 10 µM glutamate as agonist; antagonists applied 5 minutes prior to agonist; read-out: F-IC 50
T1 construct: expressed in transfected cells; host or cells: HEK 293 cells (transient transfection), membrane preparation
Description: a) functional assay for the characterization of mGluR 1 antagonistic properties
cDNA encoding rat mGluR1a receptor obtained from Prof. S. Nakanishi (Kyoto, Japan) was transiently transfected into HEK-EBNA cells using a procedure described by Schlaeger et. al., New Dev. New Appl. Anim. Cell Techn., Proc. ESACT Meet., 15th ( 1998), 105-112 and 117-120. [Ca^2+]i measurements were performed on mGluR1a transfected HEK-EBNA cells after incubation of the cells with Fluo-3 AM (0.5 µM final concentration) for 1 hour at 37 °C followed by 4 washes with assay buffer (DMEM supplemented with Hank's salt and 20 mM HEPES. [Ca^2+]i measurements were done using a fluorometric imaging plate reader (FLIPR, Molecular Devices Corporation, La Jolla, CA, USA). 10 µM glutamate as agonist was used to evaluate the potency of the antagonists.
Increasing concentrations of antagonists were applied to the cells 5 minutes prior to the application of the agonist. The inhibition (antagonists) curves were fitted with a four parameter logistic equation giving IC50, and Hill coefficient using the iterative nonlinear curve fitting software Origin (Microcal Software Inc., Northampton, MA, USA).

[2] = molecular target: T1, rat mGluR1a receptor; experiment: binding assay for the characterization of mGluR 1 antagonistic properties (tritiated radioligand displacement); conditions: membranes from HEK 293 cells transfected with rat mGluR1a; tritiated 1-ethyl-2-methyl-6-oxo-4-(1,1,2-tritritio-1,2,4,5-tetrahydro-benzo[d]azepin-3-yl)-1,6-dihydro-pyrimidine-5-carbonitrile at 3 nM; 1 hour at room temperature; read-out: B-IC 50
Description: b) binding assay for the characterization of mGluR 1 antagonistic properties
Binding assay with tritiated 1-ethyl-2-methyl-6-oxo-4-(1,1,2-tritritio-1,2,4,5-tetrahydro-benzo[d]azepin-3-yl)-1,6-dihydro-pyrimidine-5-carbonitrile: HEK 293 cells were transiently transfected with the rat mGluR1a receptor. The cells were collected and washed 3 times with PBS. The cell pellets were frozen at -80 °C. Membranes were prepared from HEK 293 cells transfected with the rat mGluR1a receptor and used in the binding experiments at 10 µg proteins per assay after resuspension in a HEPES NaOH 20mM, pH=7.4 binding buffer. 1-Ethyl-2-methyl-6-oxo-4-(1,1,2-tritritio-1,2,4,5-tetrahydro-benzo[d]azepin-3-yl)-1,6-dihydro-pyrimidine-5-carbonitrile (S.A 33.4Ci/mmol) was used at 3 nM final concentration. The incubation with variable concentrations of potential inhibitors was performed for 1 hour at room temperature, the incubate was then filtered onto GF/B glass fiber filter preincubated 1 hour in PEI 0,1% and washed 3 times with 1ml of cold binding buffer. The radioactivity retained on the unifilter 96 was counted using a Topcount β counter. After correction for non specific binding the data were normalized and the IC50 value calculated using a 4 parameters logistic equation which was fitted to the inhibition curve.

T1 sequence (P23385 19-1199): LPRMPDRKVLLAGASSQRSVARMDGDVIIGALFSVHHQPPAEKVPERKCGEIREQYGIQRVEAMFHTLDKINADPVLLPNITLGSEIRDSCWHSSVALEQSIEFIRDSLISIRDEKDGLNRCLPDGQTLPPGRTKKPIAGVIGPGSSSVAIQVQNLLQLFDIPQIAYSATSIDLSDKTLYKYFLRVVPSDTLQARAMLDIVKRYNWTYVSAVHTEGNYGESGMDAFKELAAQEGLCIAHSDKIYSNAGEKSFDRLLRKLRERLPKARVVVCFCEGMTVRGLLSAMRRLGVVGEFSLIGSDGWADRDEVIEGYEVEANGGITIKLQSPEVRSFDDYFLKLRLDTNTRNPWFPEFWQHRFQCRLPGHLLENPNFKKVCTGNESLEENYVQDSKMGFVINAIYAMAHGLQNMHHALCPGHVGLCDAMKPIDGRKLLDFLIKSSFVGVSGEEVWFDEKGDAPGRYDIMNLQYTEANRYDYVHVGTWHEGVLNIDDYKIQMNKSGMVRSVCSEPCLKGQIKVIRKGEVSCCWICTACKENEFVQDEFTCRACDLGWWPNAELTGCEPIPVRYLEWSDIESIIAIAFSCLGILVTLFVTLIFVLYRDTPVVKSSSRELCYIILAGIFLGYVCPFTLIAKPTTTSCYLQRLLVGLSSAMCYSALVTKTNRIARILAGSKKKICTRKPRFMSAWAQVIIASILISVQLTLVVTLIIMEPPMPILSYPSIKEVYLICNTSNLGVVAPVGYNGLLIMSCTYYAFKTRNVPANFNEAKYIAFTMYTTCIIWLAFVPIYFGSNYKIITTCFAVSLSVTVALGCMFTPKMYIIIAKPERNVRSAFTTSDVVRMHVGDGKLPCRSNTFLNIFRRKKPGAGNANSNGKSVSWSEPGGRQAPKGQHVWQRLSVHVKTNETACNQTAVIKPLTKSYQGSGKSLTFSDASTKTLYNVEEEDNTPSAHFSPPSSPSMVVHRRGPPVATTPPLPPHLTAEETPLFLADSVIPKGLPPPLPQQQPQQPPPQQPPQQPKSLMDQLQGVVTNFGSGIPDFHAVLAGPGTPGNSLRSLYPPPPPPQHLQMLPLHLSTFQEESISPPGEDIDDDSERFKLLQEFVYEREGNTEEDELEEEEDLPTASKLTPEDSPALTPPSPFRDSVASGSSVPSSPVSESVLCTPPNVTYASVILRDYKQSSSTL

Row | SMILES | IC50 [1] | IC50 [2]
1 | CCNc1nc(N2CCc3ccccc3CC2)c(C#N)c(=O)[nH]1 [Example 25, 2-Ethylamino-6-oxo-4-(1,2,4,5-tetrahydro-benzo[d]azepin-3-yl)-1,6-dihydro-pyrimidine-5-carbonitrile] | 0.005 µM | 0.015 µM
2 | N#Cc1c(N2CCc3ccccc3CC2)nc2n(c1=O)CCC2 [Example 126, 4-Oxo-2-(1,2,4,5-tetrahydro-benzo[d]azepin-3-yl)-4,6,7,8-tetrahydro-pyrrolo[1,2-a]pyrimidine-3-carbonitrile] | 0.1 µM | 0.72 µM
3 | CCn1c(NC=O)nc(N2CCc3ccccc3CC2)c(C#N)c1=O [Example 154, N-[5-cyano-1-ethyl-6-oxo-4-(1,2,4,5-tetrahydro-benzo[d]azepin-3-yl)-1,6-dihydro-pyrimidin-2-yl]-formamide] | 0.21 µM | 0.01 µM
4 | N#Cc1c(OCC(F)(F)F)nc(NCCCN2CCOCC2)nc1N1CCc2ccccc2CC1 [Example 174, 2-(3-Morpholin-4-yl-propylamino)-4-(1,2,4,5-tetrahydro-benzo[d]azepin-3-yl)-6-(2,2,2-trifluoro-ethoxy)-pyrimidine-5-carbonitrile] | 0.97 µM | 0.088 µM
5 | N#Cc1c(OCC(F)(F)F)nc(NCCO)nc1N1CCc2ccccc2CC1 [Example 190, 2-(2-Hydroxy-ethylamino)-4-(1,2,4,5-tetrahydro-benzo[d]azepin-3-yl)-6-(2,2,2-trifluoro-ethoxy)-pyrimidine-5-carbonitrile] | 0.2 µM | 0.007 µM
6 | CSc1nc(N)nc(N2CCc3ccccc3CC2)c1C#N [Example 249, 2-Amino-4-methylsulfanyl-6-(1,2,4,5-tetrahydro-benzo[d]azepin-3-yl)-pyrimidine-5-carbonitrile] | 0.023 µM | 0.011 µM

Continued, values first:

Row | IC50 [1] | IC50 [2] | SMILES
7 | 0.008 µM | 0.018 µM | Cc1nc(N2CCc3ccccc3CC2)c([N+](=O)[O-])c(=O)n1CC(F)(F)F [Example 11, 2-Methyl-5-nitro-6-(1,2,4,5-tetrahydro-benzo[d]azepin-3-yl)-3-(2,2,2-trifluoro-ethyl)-3H-pyrimidin-4-one]
8 | 0.088 µM | 0.33 µM | Cc1nc(N2CCc3ccccc3CC2)c(C#N)c(=O)[nH]1 [Example 17, 2-Methyl-6-oxo-4-(1,2,4,5-tetrahydro-benzo[d]azepin-3-yl)-1,6-dihydro-pyrimidine-5-carbonitrile]
9 | 0.009 µM | 0.003 µM | CCn1c(N)nc(N2CCc3ccccc3CC2)c(C#N)c1=O [Example 30, 2-Amino-1-ethyl-6-oxo-4-(1,2,4,5-tetrahydro-benzo[d]azepin-3-yl)-1,6-dihydro-pyrimidine-5-carbonitrile]
10 | 0.026 µM | 0.011 µM | Cc1nc(N2CCc3ccccc3CC2)c(C#N)c(=O)n1CC(F)(F)F [Example 78, 2-Methyl-6-oxo-4-(1,2,4,5-tetrahydro-benzo[d]azepin-3-yl)-1-(2,2,2-trifluoro-ethyl)-1,6-dihydro-pyrimidine-5-carbonitrile]
11 | 0.014 µM | 0.08 µM | CCn1c(C)nc(N2CCc3ccc(F)cc3CC2)c([N+](=O)[O-])c1=O [Example 132, 3-Ethyl-6-(7-fluoro-1,2,4,5-tetrahydro-benzo[d]azepin-3-yl)-2-methyl-5-nitro-3H-pyrimidin-4-one]
12 | 0.12 µM | 0.02 µM | CNn1c(C)nc(N2CCc3ccccc3CC2)c(C#N)c1=O [Example 214, 2-Methyl-1-methylamino-6-oxo-4-(1,2,4,5-tetrahydro-benzo[d]azepin-3-yl)-1,6-dihydro-pyrimidine-5-carbonitrile]
13 | 0.038 µM | 0.002 µM | Cc1nc(N2CCc3ccccc3CC2)c(C#N)c(=O)n1OCC(F)(F)F [Example 220, 2-Methyl-6-oxo-4-(1,2,4,5-tetrahydro-benzo[d]azepin-3-yl)-1-(2,2,2-trifluoro-ethoxy)-1,6-dihydro-pyrimidine-5-carbonitrile]
